Reference: patent publication US7981883B2, “Substituted spiro-compounds and the use thereof for producing medicaments” (Gruenenthal GmbH, priority 2005, dated 2011)

Tests used:
Assay type in all cases: cell-based
VR1 (human) = molecular target: T1, VR1 (human) (Homo sapiens, UniProt Q8NER1); test: Functional FLIPR Ca2+ inflow assay on VR1 (human), CHO K1 cells stably transfected with the VR1 gene; conditions: test compound 10 μM; for VR1 (human) (% inhibition compared to 10 μM CP) / inhibition at 10 µM: then 100 nM capsaicin after 5 min, relative to maximum inhibition with 10 μM capsaicin; for VR1 (human) (% stimulation compared to 10 μM CP) / activation at 10 µM: Ca2+ signal relative to 10 μM capsaicin (CP); for inhibition at 10 µM / activation at 10 µM: CHO-K1; for inhibition at 10 µM: read-out: VR1 (human) (% inhibition compared to 10 μM CP); for activation at 10 µM: read-out: VR1 (human) (% stimulation compared to 10 μM CP)
T1 construct: expressed in transfected cells; host or cells: CHO K1 cells (ECACC)
Source text: II. Functional Testing Carried Out on the Vanilloid Receptor (VR1)
The agonistic or antagonistic effect of the substances to be tested can also be determined on the vanilloid receptor (VR1) using the following assay. According to this assay, the Ca^2+ inflow is quantified through the channel using a Ca^2+-sensitive dye (type Fluo-4, Molecular Probes Europe BV, Leiden, Netherlands) in a fluorescent imaging plate reader (FLIPR, Molecular Devices, Sunnyvale, USA).
Chinese hamster ovary cells (CHO K1 cells, European Collection of Cell Cultures (ECACC) United Kingdom) were stably transfected with the VR1 gene. For functional testing, these cells were plated out on poly-D-lysine-coated black 96 well plates having a clear base (BD Biosciences, Heidelberg, Germany) at a density of 25,000 cells/well. The cells were incubated overnight at 37° C. and 5% CO2 in a culture medium (Ham's F12 nutrient mixture, 10% by volume of FCS (foetal calf serum), 18 μg/ml L-proline). The next day the cells were incubated with Fluo-4 (Fluo-4 2 μM, 0.01% by volume of Pluronic F127, Molecular Probes in HBSS (Hank's buffered saline solution), Gibco Invitrogen GmbH, Karlsruhe, Germany) for 30 minutes at 37° C. Subsequently, the plates were washed three times with HBSS buffer and after further incubation for 15 minutes at room temperature used for Ca^2+ measurement in a FLIPR assay. The Ca^2+-dependent fluorescence was measured before and after the addition of the substances to be tested (λex wavelength=488 nm, λem=540 nm). Quantification was carried out by measuring the highest fluorescence intensity (FC, Fluorescence Counts) over time.
The FLIPR protocol consists of 2 substance additions. First the compounds to be tested (10 μM) were pipetted onto the cells and the Ca^2+ inflow was compared with the control (capsaicin 10 μM) (% activation based on the Ca^2+ signal after the addition of 10 μM capsaicin). After 5 minutes' incubation, 100 nM of capsaicin were administered and the Ca^2+ inflow was also determined.
Desensitising agonists and antagonists led to suppression of the Ca^2+ inflow. The % inhibition was calculated compared to the maximum achievable inhibition with 10 μM of capsaicin.

VR1 (rat) [1] = molecular target: T2, VR1 (rat) (Rattus norvegicus, UniProt O35433); test: Functional FLIPR Ca2+ inflow assay on rat-species vanilloid receptor 1 in rat dorsal root ganglia cells; conditions: test compound 10 μM; for VR1 (rat) (% inhibition compared to 10 μM CP) / inhibition at 10 µM: then 100 nM capsaicin after 5 min, relative to maximum inhibition with 10 μM capsaicin; for VR1 (rat) (% stimulation compared to 10 μM CP) / activation at 10 µM: Ca2+ signal relative to 10 μM capsaicin (CP); for inhibition at 10 µM: read-out: VR1 (rat) (% inhibition compared to 10 μM CP); for activation at 10 µM: read-out: VR1 (rat) (% stimulation compared to 10 μM CP)
T2 construct: from tissue; host or cells: primary cells dissociated from rat dorsal root ganglia
Source text: I. Functional Testing Carried Out on the Vanilloid Receptor 1 (VR1/TRPV1 Receptor)
The agonistic or antagonistic effect of the substances to be tested can be determined on the rat-species vanilloid receptor 1 (VR1/TRPV1) using the following assay. According to this assay, the Ca^2+ inflow is quantified through the receptor channel using a Ca^2+-sensitive dye (type Fluo-4, Molecular Probes Europe BV, Leiden, Netherlands) in a fluorescent imaging plate reader (FLIPR, Molecular Devices, Sunnyvale, USA).
Complete medium: 50 mL HAMS F12 nutrient mixture (Gibco Invitrogen GmbH, Karlsruhe, Germany) with
10% by volume of FCS (foetal calf serum, Gibco Invitrogen GmbH, Karlsruhe, Germany, […]);
2 mM L-glutamine (Sigma, Munich, Germany);
1% by weight of AA solution (antibiotic/antimyotic solution, PAA, Pasching, Austria) and 25 ng/ml NGF medium (2.5 S, Gibco Invitrogen GmbH, Karlsruhe, Germany)
Cell culture plate: Poly-D-lysine-coated, black 96 well plates having a clear base (96 well black/clear plate, BD Biosciences, Heidelberg, Germany) were additionally coated with laminin (Gibco Invitrogen GmbH, Karlsruhe, Germany), the laminin being diluted with PBS (Ca—Mg-free PBS, Gibco Invitrogen GmbH, Karlsruhe, Germany) to a concentration of 100 μg/mL. Aliquots having a laminin concentration of 100 μg/mL were removed and stored at −20° C. The aliquots were diluted with PBS in a ratio of 1:10 to 10 μg/mL laminin and in each case 50 μL of the solution were pipetted into a recess in the cell culture plate. The cell culture plates were incubated for at least two hours at 37° C., the excess solution was removed by suction-filtration and the recesses were each washed twice with PBS. The coated cell culture plates were stored with excess PBS which was not removed until just before the feeding of the cells.
The vertebral column was removed from decapitated rats and placed immediately into cold HBSS buffer (Hank's buffered saline solution, Gibco Invitrogen GmbH, Karlsruhe, Germany), i.e. buffer located in an ice bath, mixed with 1% by volume (percent by volume) of an AA solution (antibiotic/antimyotic solution, PAA, Pasching, Austria). The vertebral column was cut longitudinally and removed together with fasciae from the vertebral canal. Subsequently, the dorsal root ganglia (DRG) were removed and again stored in cold HBSS buffer mixed with 1% by volume of an AA solution. The DRG, from which all blood remnants and spinal nerves had been removed, were transferred in each case to 500 μL of cold type 2 collagenase (PAA, Pasching, Austria) and incubated for 35 minutes at 37° C. After the addition of 2.5% by volume of trypsin (PAA, Pasching, Austria), incubation was continued for 10 minutes at 37° C. After complete incubation, the enzyme solution was carefully pipetted off and 500 μL of complete medium were added to each of the remaining DRG. The DRG were in each case suspended several times, drawn through cannulae No. 1, No. 12 and No. 16 using a syringe and transferred to a 50 mL Falcon tube which was filled up to 15 mL with complete medium. The contents of each Falcon tube was in each case filtered through a 70 μm Falcon filter element and centrifuged for 10 minutes at 1,200 rpm and room temperature. The resulting pellet was in each case taken up in 250 μL of complete medium and the number of cells determined.
The number of cells in the suspension was set to 3×10^5 per mL and 150 μL of this suspension were in each case introduced into a recess in the cell culture plates coated as described hereinbefore. In the incubator the plates were left for two to three days at 37° C., 5% by volume of CO2 and 95% relative humidity. […]

VR1 (rat) [2] = molecular target: T2, VR1 (rat); test: as above; conditions: against capsaicin (CAP)

T2 sequence (O35433 whole entry): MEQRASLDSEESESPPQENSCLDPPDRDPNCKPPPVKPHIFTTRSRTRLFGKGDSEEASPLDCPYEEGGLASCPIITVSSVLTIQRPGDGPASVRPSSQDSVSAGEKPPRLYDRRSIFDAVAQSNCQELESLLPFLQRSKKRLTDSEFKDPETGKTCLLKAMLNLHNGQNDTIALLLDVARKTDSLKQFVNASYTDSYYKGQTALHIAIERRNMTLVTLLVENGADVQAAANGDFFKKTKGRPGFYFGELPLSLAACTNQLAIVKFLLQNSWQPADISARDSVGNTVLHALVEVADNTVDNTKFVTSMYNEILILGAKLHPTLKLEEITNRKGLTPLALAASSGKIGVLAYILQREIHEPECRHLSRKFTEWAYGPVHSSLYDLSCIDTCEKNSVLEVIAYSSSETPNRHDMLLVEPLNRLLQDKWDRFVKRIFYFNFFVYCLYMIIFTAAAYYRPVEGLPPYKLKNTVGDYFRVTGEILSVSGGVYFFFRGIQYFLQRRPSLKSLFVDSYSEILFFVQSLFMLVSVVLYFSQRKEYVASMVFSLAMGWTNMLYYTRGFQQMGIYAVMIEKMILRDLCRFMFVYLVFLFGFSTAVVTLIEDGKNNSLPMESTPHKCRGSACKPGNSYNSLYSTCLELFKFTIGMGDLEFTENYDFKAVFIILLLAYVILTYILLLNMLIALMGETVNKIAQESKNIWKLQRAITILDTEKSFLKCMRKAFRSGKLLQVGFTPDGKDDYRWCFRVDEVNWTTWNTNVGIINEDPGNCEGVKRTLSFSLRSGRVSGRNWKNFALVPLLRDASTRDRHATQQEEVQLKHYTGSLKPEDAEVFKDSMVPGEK
T1 sequence (Q8NER1 whole entry): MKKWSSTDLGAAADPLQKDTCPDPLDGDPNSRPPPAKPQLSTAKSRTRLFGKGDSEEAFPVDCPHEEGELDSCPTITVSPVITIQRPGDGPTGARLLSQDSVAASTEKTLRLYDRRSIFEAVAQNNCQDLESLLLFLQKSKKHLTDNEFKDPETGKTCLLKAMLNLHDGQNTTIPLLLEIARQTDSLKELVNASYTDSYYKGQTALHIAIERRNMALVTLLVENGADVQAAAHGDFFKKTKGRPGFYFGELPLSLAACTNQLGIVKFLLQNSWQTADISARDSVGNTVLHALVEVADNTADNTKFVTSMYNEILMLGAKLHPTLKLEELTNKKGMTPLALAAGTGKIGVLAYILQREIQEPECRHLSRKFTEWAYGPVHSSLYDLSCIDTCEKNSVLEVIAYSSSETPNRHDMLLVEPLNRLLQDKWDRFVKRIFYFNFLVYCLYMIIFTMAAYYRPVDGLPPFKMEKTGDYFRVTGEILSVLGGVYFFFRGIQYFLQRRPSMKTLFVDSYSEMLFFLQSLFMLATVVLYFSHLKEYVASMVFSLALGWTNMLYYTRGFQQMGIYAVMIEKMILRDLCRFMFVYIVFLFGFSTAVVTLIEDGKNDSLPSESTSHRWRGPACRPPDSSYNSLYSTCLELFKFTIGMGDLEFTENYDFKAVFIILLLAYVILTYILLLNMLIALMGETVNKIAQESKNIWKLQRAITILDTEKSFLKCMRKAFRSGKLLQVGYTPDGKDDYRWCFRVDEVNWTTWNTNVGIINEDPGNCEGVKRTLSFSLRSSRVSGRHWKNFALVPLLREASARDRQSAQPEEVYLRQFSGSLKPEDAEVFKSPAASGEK

With `CC(C)(C)C1CCC2(CC1)CC(C(=O)N1CCCN(c3ncccc3Cl)CC1)=NO2` (stereo not drawn) [Example 21, trans-(8-tert-butyl-1-oxa-2-azaspiro[4.5]dec-2-en-3-yl)-[4-(3-chloropyridin-2-yl)-[1,4]diazepan-1-yl]methanone] the “VR1 (human) (% inhibition compared to 10 μM CP)” value (VR1 (human)) was 6.75%, the “VR1 (human) (% stimulation compared to 10 μM CP)” value (VR1 (human)) was −0.05% and the “VR1 (rat) (% inhibition compared to 10 μM CP)” value (VR1 (rat) [1]) was 52.32%. The “VR1 (rat) (% stimulation compared to 10 μM CP)” value (VR1 (rat) [1]) was 0.37%.

In the case of `CC(C)(C)[C@H]1CC[C@@]2(CC1)CC(C(=O)N1CCCN(c3ncccc3Cl)CC1)=NO2` [Example 22, cis-(8-tert-butyl-1-oxa-2-azaspiro[4.5]dec-2-en-3-yl)-[4-(3-chloropyridin-2-yl)-[1,4]diazepan-1-yl]methanone], the “VR1 (human) (% inhibition compared to 10 μM CP)” value (VR1 (human)) is reported as 0.14%, the “VR1 (human) (% stimulation compared to 10 μM CP)” value (VR1 (human)) is reported as 0.13% and the “VR1 (rat) (% inhibition compared to 10 μM CP)” value (VR1 (rat) [1]) is reported as 16.63%. The “VR1 (rat) (% stimulation compared to 10 μM CP)” value (VR1 (rat) [1]) was −0.37%.

For `CC(C)(C)C1CCC2(CC1)CC(C(=O)NCc1ccncc1)=NO2` (stereo not drawn) [Example 23, trans-8-tert-butyl-1-oxa-2-azaspiro[4.5]dec-2-ene-3-carboxylic acid (pyridin-4-ylmethyl)amide], the “VR1 (human) (% inhibition compared to 10 μM CP)” value (VR1 (human)) was 54.21%, the “VR1 (human) (% stimulation compared to 10 μM CP)” value (VR1 (human)) was 23.79% and the “VR1 (rat) (% inhibition compared to 10 μM CP)” value (VR1 (rat) [1]) was 69.46%. The “VR1 (rat) (% stimulation compared to 10 μM CP)” value (VR1 (rat) [1]) was 55.21%.

`CC(C)(C)[C@H]1CC[C@@]2(CC1)CC(C(=O)NCc1ccncc1)=NO2` [Example 24, cis-8-tert-butyl-1-oxa-2-azaspiro[4.5]dec-2-ene-3-carboxylic acid (pyridin-4-ylmethyl)amide] was tested, and the “VR1 (human) (% inhibition compared to 10 μM CP)” value (VR1 (human)) was 83.01%, the “VR1 (human) (% stimulation compared to 10 μM CP)” value (VR1 (human)) was 91.72% and the “VR1 (rat) (% inhibition compared to 10 μM CP)” value (VR1 (rat) [1]) was 97.79%. For the same compound, the “VR1 (rat) (% stimulation compared to 10 μM CP)” value (VR1 (rat) [1]) was 87.96%.

An inhibition at 10 µM (VR1 (human)) of 56.5%, an activation at 10 µM (VR1 (human)) of 0.16% and an inhibition at 10 µM (VR1 (rat) [1]) of 98.3% were found for `CC(C)(C)[C@H]1CC[C@]2(CC1)CC(C(=O)NCc1ccc(NS(C)(=O)=O)c(F)c1)=NO2` [Example 25, trans-8-tert-butyl-1-oxa-2-azaspiro[4.5]dec-2-ene-3-carboxylic acid-3-fluoro-4-methanesulphonylaminobenzylamide] in this work. It also gave an activation at 10 µM (VR1 (rat) [1]) of 1.04%.

An inhibition at 10 µM (VR1 (human)) of 64%, an activation at 10 µM (VR1 (human)) of 15% and an inhibition at 10 µM (VR1 (rat) [1]) of 97% were found for `CC(C)(C)c1ccc(NC(=O)C2CCC3(CC2)CC(c2ccccc2)=NO3)cc1` (stereo not shown) [Example 50, 3-phenyl-1-oxa-2-azaspiro[4.5]dec-2-ene-8-carboxylic acid-(4-tert-butylphenyl)amide] in this work. It also gave an activation at 10 µM (VR1 (rat) [1]) of 60%, an IC50 (VR1 (rat) [2]) of 545 nM and a Ki (VR1 (rat) [2]) of 63.7 nM.

With `CC(C)(C)c1ccc(NC(=O)[C@H]2CC[C@@]3(CC2)CC(c2ccccc2)=NO3)cc1` [Example 51, 3-phenyl-1-oxa-2-azaspiro[4.5]dec-2-ene-8-carboxylic acid-cis-(4-tert-butylphenyl)amide] the “VR1 (human) (% inhibition compared to 10 μM CP)” value (VR1 (human)) was 25%, the “VR1 (human) (% stimulation compared to 10 μM CP)” value (VR1 (human)) was 17% and the “VR1 (rat) (% inhibition compared to 10 μM CP)” value (VR1 (rat) [1]) was 91%. For the same compound, the “VR1 (rat) (% stimulation compared to 10 μM CP)” value (VR1 (rat) [1]) was 73%.

An inhibition at 10 µM (VR1 (human)) of 54%, an activation at 10 µM (VR1 (human)) of 53% and an inhibition at 10 µM (VR1 (rat) [1]) of 101% were found for `COc1cccc(C2=NOC3(CCC(C(=O)Nc4ccc(C(C)(C)C)cc4)CC3)C2)c1` (stereo not shown) [Example 66, N-(4-tert-butylphenyl)-3-(3-methoxyphenyl)-1-oxa-2-azaspiro[4.5]dec-2-ene-8-carboxamide] in this work. For the same compound, the activation at 10 µM (VR1 (rat) [1]) was 87%.

An inhibition at 10 µM (VR1 (human)) of 31%, an activation at 10 µM (VR1 (human)) of 33% and an inhibition at 10 µM (VR1 (rat) [1]) of 103% were found for `CC(C)(C)c1ccc(NC(=O)C2CCC3(CC2)CC(C(=O)N2CCN(c4ncccc4Cl)CC2)=NO3)cc1` (stereo not shown) [Example 84, N-(4-tert-butylphenyl)-3-(4-(3-chloropyridin-2-yl)piperazin-1-carbonyl)-1-oxa-2-azaspiro[4.5]dec-2-ene-8-carboxamide] in this work. For the same compound, the activation at 10 µM (VR1 (rat) [1]) was 61%.

An inhibition at 10 µM (VR1 (human)) of 34%, an activation at 10 µM (VR1 (human)) of 36% and an inhibition at 10 µM (VR1 (rat) [1]) of 100% were found for `CC(C)(C)C1CCC2(CC1)CC(C(=O)Nc1ccc(NS(C)(=O)=O)c(F)c1)=NO2` (stereo not shown) [Example 90, 8-tert-butyl-N-(3-fluoro-4-(methylsulphonamido)phenyl)-1-oxa-2-azaspiro[4.5]dec-2-ene-3-carboxamide] in this work. For the same compound, the activation at 10 µM (VR1 (rat) [1]) was 43%.

In the case of “((5R,8R)-8-tert-butyl-1-oxa-2-azaspiro[4.5]dec-2-en-3-yl)(4-(3-chloropyridin-2-yl)-2,6-dimethylpiperazin-1-yl)methanone [Example 58]”, the “VR1 (human) (% inhibition compared to 10 μM CP)” value (VR1 (human)) is reported as 67%, the “VR1 (human) (% stimulation compared to 10 μM CP)” value (VR1 (human)) is reported as 27% and the “VR1 (rat) (% inhibition compared to 10 μM CP)” value (VR1 (rat) [1]) is reported as 107%. The “VR1 (rat) (% stimulation compared to 10 μM CP)” value (VR1 (rat) [1]) was 46%.
